Assay results published in ChEMBL document CHEMBL4627402, “Design and Synthesis of Styrenylcyclopropylamine LSD1 Inhibitors” (ACS Med Chem Lett, 2020).
Calls of active or inactive are those of the source. The calls are words filed in the database; no cut-off is given here.

How the values were obtained:
Kasumi 1 [1] = assay: Growth inhibition on human Kasumi-1 cells measured upto 12 days by Cell Titer-Glo luminescent cell viability assay; format: functional; details: Kasumi 1, 288 h
[2] = Metabolic stability in mouse liver microsomes assessed as intrinsic clearance; format: ADME, Microsome; details: read-out: CLH
[3] = Metabolic stability in rat liver microsomes assessed as intrinsic clearance; format: ADME, Microsome; details: read-out: CLH
[4] = Metabolic stability in dog liver microsomes assessed as intrinsic clearance; format: ADME, Canis lupus familiaris, Microsome; details: read-out: CLH
[5] = Metabolic stability in human liver microsomes assessed as intrinsic clearance; format: ADME, Microsome; details: read-out: CLH
[6] = target: T1, Lysine-specific histone demethylase 1A (Homo sapiens, UniProt O60341)
Description: Inhibition of LSD1 in human MV4-11 cells assessed as induction of LY96 mRNA expression incubated for 16 hrs by chemiluminescent method

[7] = target: T1, Lysine-specific histone demethylase 1A; remark: listed apart in the source
[8] = target: T1, Lysine-specific histone demethylase 1A; remark: listed apart in the source
[9] = target: T1, Lysine-specific histone demethylase 1A; remark: listed apart in the source
[10] = target: T1, Lysine-specific histone demethylase 1A; remark: listed apart in the source
[11] = Protein binding in plasma (unknown origin) assessed as parent compound remaining; format: ADME, cell-free
MOLM-13 = assay: Growth inhibition on human MOLM13 cells measured upto 12 days by Cell Titer-Glo luminescent cell viability assay; format: functional; details: MOLM-13, 288 h
[12] = target: T2, Amine oxidase [flavin-containing] B (Homo sapiens, UniProt P27338); assay: Inhibition of MAO-B (unknown origin)
T2 sequence (P27338 whole entry): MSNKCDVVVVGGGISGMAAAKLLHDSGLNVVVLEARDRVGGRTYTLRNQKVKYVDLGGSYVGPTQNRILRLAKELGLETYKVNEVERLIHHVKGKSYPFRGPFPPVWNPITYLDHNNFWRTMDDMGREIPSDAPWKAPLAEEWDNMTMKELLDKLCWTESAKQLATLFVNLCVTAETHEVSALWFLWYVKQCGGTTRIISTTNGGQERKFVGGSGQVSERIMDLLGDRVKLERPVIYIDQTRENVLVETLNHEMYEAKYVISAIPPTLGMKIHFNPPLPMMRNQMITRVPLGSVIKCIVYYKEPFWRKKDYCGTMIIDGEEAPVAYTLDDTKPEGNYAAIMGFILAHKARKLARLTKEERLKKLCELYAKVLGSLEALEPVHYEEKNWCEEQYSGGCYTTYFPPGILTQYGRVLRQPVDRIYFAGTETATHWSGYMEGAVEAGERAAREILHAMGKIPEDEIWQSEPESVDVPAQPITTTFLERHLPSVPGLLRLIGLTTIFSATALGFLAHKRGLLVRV

[13] = target: T3, Amine oxidase [flavin-containing] A (Homo sapiens, UniProt P21397); assay: Inhibition of MAO-A (unknown origin)
T3 sequence (P21397 whole entry): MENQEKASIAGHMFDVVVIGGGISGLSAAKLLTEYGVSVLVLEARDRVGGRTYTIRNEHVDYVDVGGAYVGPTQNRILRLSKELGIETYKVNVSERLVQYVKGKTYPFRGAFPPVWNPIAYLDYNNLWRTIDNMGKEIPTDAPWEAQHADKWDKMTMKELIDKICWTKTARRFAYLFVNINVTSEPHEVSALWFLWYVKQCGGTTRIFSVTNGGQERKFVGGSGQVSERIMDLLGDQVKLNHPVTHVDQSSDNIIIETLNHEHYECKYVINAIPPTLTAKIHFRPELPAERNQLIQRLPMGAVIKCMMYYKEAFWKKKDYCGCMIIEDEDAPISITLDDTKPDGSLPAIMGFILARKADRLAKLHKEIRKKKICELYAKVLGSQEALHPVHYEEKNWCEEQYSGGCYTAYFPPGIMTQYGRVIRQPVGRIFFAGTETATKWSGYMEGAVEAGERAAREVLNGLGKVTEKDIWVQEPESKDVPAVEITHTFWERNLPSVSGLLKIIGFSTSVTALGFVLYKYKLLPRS

MV4-11 = assay: Growth inhibition on human MV4-11 cells measured upto 12 days by Cell Titer-Glo luminescent cell viability assay; format: functional; details: MV4-11, 288 h
NOMO-1 = assay: Growth inhibition on human NOMO1 cells measured upto 12 days by Cell Titer-Glo luminescent cell viability assay; format: functional; details: NOMO-1, 288 h
OCI-AML-3 = assay: Growth inhibition on human OCI-AML3 cells measured upto 12 days by Cell Titer-Glo luminescent cell viability assay; format: functional; details: OCI-AML-3, 288 h
OCI-AML-5 = assay: Growth inhibition on human OCI-AML5 cells measured upto 12 days by Cell Titer-Glo luminescent cell viability assay; format: functional; details: OCI-AML-5, 288 h
SET-2 = assay: Growth inhibition on human SET2 cells measured upto 12 days by Cell Titer-Glo luminescent cell viability assay; format: functional; details: SET-2, 288 h
SKM-1 = assay: Growth inhibition on human SKM1 cells measured upto 12 days by Cell Titer-Glo luminescent cell viability assay; format: functional; details: SKM-1, 288 h
[14] = Clearance in mouse at 1 mg/kg, iv; format: ADME, organism-based; details: in vivo
[15] = Volume of distribution at steady state in mouse at 1 mg/kg, iv; format: ADME, organism-based; details: in vivo, read-out: Vdss
[16] = Half life in mouse at 1 mg/kg, iv; format: ADME, organism-based; details: in vivo
[17] = Cmax in mouse at 5 mg/kg, po; format: ADME, organism-based; design: dose 5 mg/kg, route oral; details: in vivo
[18] = AUC (0 to infinity) in mouse at 5 mg/kg, po; format: ADME, organism-based; design: dose 5 mg/kg, time infinity, route oral; details: in vivo
[19] = Oral bioavailability in mouse at 5 mg/kg; format: ADME, organism-based; details: in vivo
Kasumi 1 [20] = assay: Antitumor activity against human Kasumi-1 cells xenografted in oral dosed CB17 SCID mouse assessed as tumor growth inhibition administered for 14 days; format: functional, organism-based
[21] = Toxicity in CB17 SCID mouse xenografted with human Kasumi-1 cells assessed body weight loss at 1.5 mg/kg, po administered for 14 days; format: organism-based; details: in vivo, 336 h
[22] = Toxicity in CB17 SCID mouse xenografted with human Kasumi-1 cells assessed body weight loss at 0.5 mg/kg, po administered for 14 days; format: organism-based; details: in vivo, 336 h
Mus musculus = assay: Induction of LY96 mRNA in CB17-scid mouse xenografted with human Kasumi-1 cells at 0.5 and 1.5 mg/kg, po administered for 14 days; format: functional, organism-based

SMILES: CC/C(=C\c1ccccc1)[C@@H]1C[C@H]1NC1CC2(CNC2)C1
- GI50 (Kasumi 1 [1]): 11 nM
- microsomal CLint [2]: 17 µL/min/mg
- microsomal CLint [3]: 19 µL/min/mg
- microsomal CLint [4]: 14 µL/min/mg
- microsomal CLint [5]: 11 µL/min/mg

SMILES: CC/C(=C\c1ccccc1)[C@@H]1C[C@H]1NC1CCN(CCO)CC1
- GI50 (Kasumi 1 [1]): 3 nM
- microsomal CLint [2]: 46 µL/min/mg
- microsomal CLint [3]: 27 µL/min/mg
- microsomal CLint [4]: 106 µL/min/mg
- microsomal CLint [5]: 41 µL/min/mg
- EC50 [6]: 4 nM
- IC50 [7]: < 2.6 nM

SMILES: C/C(=C\c1ccccc1)[C@@H]1C[C@H]1NC1CCNCC1 (racemic)
- IC50 [7]: < 2.8 nM

SMILES: CC/C(=C\c1ccccc1)[C@@H]1C[C@H]1NC1CC2(C1)CN(S(C)(=O)=O)C2
- GI50 (Kasumi 1 [1]): 17 nM
- microsomal CLint [2]: 812 µL/min/mg
- microsomal CLint [3]: 80 µL/min/mg
- microsomal CLint [4]: 105 µL/min/mg
- microsomal CLint [5]: 67 µL/min/mg

SMILES: O=C(O)c1ccc(CN2CCC(CN[C@@H]3C[C@H]3c3ccccc3)CC2)cc1 [GSK2879552]
- GI50 (Kasumi 1 [1]): 20 nM
- Kinact [8]: 0.39 min⁻¹
- Ratio [9]: 680 M⁻¹ s⁻¹
- EC50 [6]: 54 nM
- IC50 [7]: 212 nM
- Ki [10]: 9.6 nM

SMILES: C(=C\C1CC1NCC1CCNCC1)/c1ccccc1 (stereo not given)
- fraction unbound [11]: ≤ 0.05

SMILES: CC/C(=C\c1ccccc1)[C@@H]1C[C@H]1NC1CC2(CCN(CCO)CC2)C1
- GI50 (Kasumi 1 [1]): 1 nM
- microsomal CLint [2]: 28 µL/min/mg
- microsomal CLint [3]: 19 µL/min/mg
- microsomal CLint [4]: 39 µL/min/mg
- microsomal CLint [5]: 10 µL/min/mg
- EC50 [6]: 5 nM
- IC50 [7]: < 3 nM

SMILES: CC/C(=C\c1ccccc1)[C@@H]1C[C@H]1NC1CC2(C1)CN(C1COC1)C2
- GI50 (Kasumi 1 [1]): 1 nM
- microsomal CLint [2]: 85 µL/min/mg
- microsomal CLint [3]: 43 µL/min/mg
- microsomal CLint [4]: 283 µL/min/mg
- microsomal CLint [5]: 49 µL/min/mg

SMILES: CC/C(=C\c1ccccc1)[C@@H]1C[C@H]1NC1CC2(C1)CN(CCO)C2
- GI50 (MOLM-13): 893 nM
- IC50 [12]: > 80000 nM
- IC50 [13]: > 80000 nM
- GI50 (Kasumi 1 [1]): 1 nM
- microsomal CLint [2]: 25 µL/min/mg
- microsomal CLint [3]: 15 µL/min/mg
- microsomal CLint [4]: 41 µL/min/mg
- microsomal CLint [5]: 9 µL/min/mg
- GI50 (MV4-11): 5 nM
- GI50 (NOMO-1): 78 nM
- GI50 (OCI-AML-3): 271 nM
- GI50 (OCI-AML-5): 332 nM
- GI50 (SET-2): 37 nM
- GI50 (SKM-1): 14 nM
- Kinact [8]: 0.38 min⁻¹
- Ratio [9]: 1e+06 M⁻¹ s⁻¹
- clearance [14]: 162 mL/min/kg
- Vd [15]: 118 L/kg
- half-life [16]: 25.3 h
- Cmax [17]: 40 ng/mL
- AUC(0-inf) [18]: 189 ng·h/mL
- bioavailability [19]: 59%
- TGI (Kasumi 1 [20]): Dose-dependent effect
- Activity [21]: <= 5%
- Activity [22]: Non-Toxic
- Activity (Mus musculus): Active
- EC50 [6]: 2 nM
- IC50 [7]: < 3 nM
- Ki [10]: 6.1 nM

SMILES: CC/C(=C\c1ccccc1)[C@@H]1C[C@H]1NC1CC2(C1)CN(CC(F)F)C2
- GI50 (Kasumi 1 [1]): 110 nM
- microsomal CLint [2]: 883 µL/min/mg
- microsomal CLint [3]: 175 µL/min/mg
- microsomal CLint [4]: 480 µL/min/mg
- microsomal CLint [5]: 133 µL/min/mg
- EC50 [6]: 7 nM
- IC50 [7]: < 3 nM

SMILES: CC/C(=C\c1ccccc1)[C@@H]1C[C@H]1NC1CC2(C1)CN(C(C)=O)C2
- GI50 (Kasumi 1 [1]): 41 nM
- microsomal CLint [2]: 76 µL/min/mg
- microsomal CLint [3]: 48 µL/min/mg
- microsomal CLint [4]: 87 µL/min/mg
- microsomal CLint [5]: 18 µL/min/mg

SMILES: CC/C(=C\c1ccccc1)[C@@H]1C[C@H]1N[C@H]1CC[C@H](NCCO)CC1 (racemic)
- EC50 [6]: 6 nM
- IC50 [7]: < 1.8 nM
